Experimental data published in ChEMBL document CHEMBL1201862, “PubChem BioAssay data set” (2004).
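Test compounds were applied to cells in 96-well plates for 48 hours at 5 doses. GI50 is the concentration that inhibits growth by half.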 Activity calls are given as the source filed them. No stated cut-off is given here; in the data, active = GI50 up to about 1.1 µM and inactive = higher. Non-standard residues stand in square brackets, D forms with d. Residues, ends and D or L forms follow the SMILES beside them. ξ: configuration not given here. *: point of attachment. ξF = NC(Cc1ccccc1)C(=O)O; Cbz = O=C(OCc1ccccc1)*; Aib = CC(C)(N)C(=O)O

How the values were obtained:
Experiment in all cases: NCI tumour cell line growth inhibition, 48 h
SK-OV-3 = system: SK-OV-3
TK-10 = system: TK-10
K562 = system: K562
SF-295 = system: SF-295
SK-MEL-2 = system: SK-MEL-2
RPMI-8226 = system: RPMI-8226
UACC-257 = system: UACC-257
SR = system: SR
MCF7 = system: MCF7
NCI/ADR-RES = system: NCI/ADR-RES
MDA-N = system: MDA-N
DU-145 = system: DU-145
T47D = system: T47D
PC-3 = system: PC-3
786-0 = system: 786-0
MDA-MB-231 = system: MDA-MB-231
MDA-MB-435 = system: MDA-MB-435
Hs-578T = system: Hs-578T

Measured: GI50

C/C(CCOC1CCCCO1)=C(\C)[Si](C)(C)C (configuration not stated)
inactive: SK-OV-3 > 10 µM | TK-10 > 100 µM | K562 > 100 µM | SF-295 > 100 µM | SK-MEL-2 > 100 µM | RPMI-8226 > 100 µM | UACC-257 > 100 µM | SR > 100 µM

CC#CC(O)(C(=O)OC1CCC2CCC1N2C)C1CCCC1 (configuration not stated)
inactive: SK-OV-3 > 100 µM | TK-10 > 100 µM | MCF7 > 100 µM | NCI/ADR-RES > 10 µM | SF-295 > 100 µM | MDA-N > 100 µM | DU-145 > 100 µM | RPMI-8226 > 100 µM | T47D > 100 µM | UACC-257 > 100 µM | PC-3 > 100 µM | 786-0 > 100 µM | SR > 100 µM | MDA-MB-231 > 100 µM

C[n+]1cccc2c(=O)c3ccccc3oc21
inactive: SK-OV-3 > 100 µM | TK-10 > 100 µM | MCF7 > 100 µM | NCI/ADR-RES > 100 µM | K562 > 100 µM | MDA-MB-435 > 100 µM | SF-295 > 100 µM | SK-MEL-2 > 100 µM | Hs-578T > 100 µM | MDA-N > 100 µM | DU-145 > 100 µM | T47D > 100 µM | PC-3 > 100 µM | SR > 100 µM | MDA-MB-231 > 100 µM

C=CCCCC12CCCc3cccc(c31)NC2=O (configuration not stated)
inactive: SK-OV-3 19.7 µM | TK-10 19.6 µM | K562 22 µM | SF-295 76.2 µM | SK-MEL-2 23.2 µM | RPMI-8226 19.7 µM | UACC-257 22.1 µM | SR 20.8 µM

CCOC(=O)N1CCC(=O)C(CNC23CC4CC(CC(C4)C2)C3)C1 (configuration not stated)
inactive: SK-OV-3 > 100 µM | TK-10 > 100 µM | K562 13.1 µM | SF-295 > 100 µM | SK-MEL-2 > 100 µM | UACC-257 23.9 µM | 786-0 15.6 µM | SR 21.7 µM

CCC(/C(=N/NC(=O)C[N+](C)(C)C)c1ccccc1)C1OC(=O)c2ccccc21 (configuration not stated)
inactive: SK-OV-3 > 100 µM | TK-10 > 100 µM | K562 > 100 µM | SF-295 > 100 µM | RPMI-8226 > 100 µM | UACC-257 > 100 µM | 786-0 > 100 µM | SR > 100 µM

COc1ccc(N2C(=O)C(=O)N(C)C2=O)c2ccccc12
inactive: SK-OV-3 > 10 µM | TK-10 > 10 µM | MCF7 > 10 µM | NCI/ADR-RES > 10 µM | K562 > 10 µM | MDA-MB-435 > 10 µM | SF-295 > 10 µM | SK-MEL-2 > 10 µM | Hs-578T > 10 µM | DU-145 > 10 µM | RPMI-8226 > 10 µM | T47D > 10 µM | PC-3 > 10 µM | SR > 10 µM | MDA-MB-231 > 10 µM

O=C1c2[nH]c3ccc(Br)cc3c2CCN1Cc1ccc(Cl)cc1
inactive: TK-10 13.7 µM | MCF7 16.6 µM | NCI/ADR-RES 17.2 µM | K562 8.79 µM | MDA-MB-435 14.4 µM | SF-295 12.8 µM | SK-MEL-2 19.1 µM | Hs-578T 17.1 µM | MDA-N 14.7 µM | DU-145 14.2 µM | RPMI-8226 > 10 µM | T47D 13.4 µM | UACC-257 15.3 µM | PC-3 4.74 µM | 786-0 11.3 µM | SR 8.79 µM | MDA-MB-231 11.9 µM

CCOC(=O)CNC(=O)C(Cc1ccccc1)NC(=O)C(C)(C)NC(=O)OCc1ccccc1 (configuration not stated) (Cbz-[Aib]-[ξF]-Gly-OEt)
inactive: TK-10 > 100 µM | MCF7 > 100 µM | NCI/ADR-RES > 100 µM | K562 33.1 µM | MDA-MB-435 67.3 µM | SF-295 > 100 µM | MDA-N > 100 µM | DU-145 28.6 µM | RPMI-8226 32.6 µM | T47D 77.8 µM | UACC-257 33.1 µM | PC-3 > 100 µM | SR 30.3 µM | MDA-MB-231 > 100 µM
